Laboratory results from article PMC3464284, “Virtual Screening as a Strategy for the Identification of Xenobiotics Disrupting Corticosteroid Action” (PLoS ONE, 2012).
Counter-ions that a name gives are not always drawn. Like-named read-outs stand apart in the source and are kept apart here. Each block holds one compound with its values, some of them ahead of it.

Columns and labels:
Type in all cases: biochemical
11β-HSD2 [1] = target: T1, 11β-HSD2 (Homo sapiens, UniProt P80365); assay: radiolabeled cortisol to cortisone conversion, HEK-293 lysate; conditions: for 11β-HSD2 activity (% of control): 20 µM, […] cortisol, […] NAD+, […]°C, […] min
T1 construct: gene HSD11B2; stably expressed in HEK-293 cells, cell lysate
T1 sequence (P80365 1-405): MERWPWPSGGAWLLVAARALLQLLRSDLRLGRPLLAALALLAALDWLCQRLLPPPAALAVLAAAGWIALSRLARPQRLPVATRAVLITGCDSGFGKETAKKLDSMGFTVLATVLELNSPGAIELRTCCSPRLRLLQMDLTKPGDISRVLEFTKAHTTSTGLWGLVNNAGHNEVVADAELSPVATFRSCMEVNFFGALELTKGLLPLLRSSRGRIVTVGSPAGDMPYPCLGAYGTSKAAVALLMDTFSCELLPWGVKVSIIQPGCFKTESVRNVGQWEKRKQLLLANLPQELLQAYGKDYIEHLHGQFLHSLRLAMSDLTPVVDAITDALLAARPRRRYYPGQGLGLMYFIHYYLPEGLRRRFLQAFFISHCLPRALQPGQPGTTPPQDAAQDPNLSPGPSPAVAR

11β-HSD1 [2] = target: T2, 11β-HSD1 (Homo sapiens, UniProt P28845); assay: radiolabeled cortisone to cortisol conversion, HEK-293 lysate; conditions: for 11β-HSD1 activity (% of control): 20 µM, […] cortisone, […] NADPH, […]°C, […] min; for remaining activity at 20 µM: read-out: 11β-HSD1 activity (% of control)
T2 construct: gene HSD11B1; stably expressed in HEK-293 cells, cell lysate
Source text: radiolabeled cortisone to cortisol conversion, HEK-293 lysate on 11β-HSD1

11β-HSD1 [3] = target: T2, 11β-HSD1; assay: as above
11β-HSD2 [4] = target: T1, 11β-HSD2; assay: radiolabeled cortisol to cortisone conversion, HEK-293 lysate
[5] = read-out: 11β-HSD2 activity (% of control)

T2 sequence (P28845 whole entry): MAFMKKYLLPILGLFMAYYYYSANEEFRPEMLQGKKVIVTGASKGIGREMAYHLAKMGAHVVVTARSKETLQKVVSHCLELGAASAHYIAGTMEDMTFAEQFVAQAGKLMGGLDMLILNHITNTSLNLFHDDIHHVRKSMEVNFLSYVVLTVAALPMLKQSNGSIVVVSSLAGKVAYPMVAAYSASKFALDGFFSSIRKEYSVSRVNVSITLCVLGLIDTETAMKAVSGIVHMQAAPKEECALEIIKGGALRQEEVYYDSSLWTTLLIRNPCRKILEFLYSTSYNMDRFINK

remaining activity at 20 µM (11β-HSD2 [1]; read-out: remaining activity at 20 μM): 80 ± 7%
SMILES: CCO[Si](CCCS)(OCC)OCC [3-mercaptopropyl triethoxysilane]

SMILES: CC[C@H]1CN2CCc3cc(OC)c(OC)cc3[C@@H]2C[C@@H]1C[C@H]1NCCc2cc(O)c(OC)cc21 [(−) Cephaeline dihydrochloride]
11β-HSD2 activity (% of control) (11β-HSD2 [1]): 74±2
11β-HSD1 activity (% of control) (11β-HSD1 [2]): 100±2

SMILES: CCO[Si](CCCSSSSCCC[Si](OCC)(OCC)OCC)(OCC)OCC [AB110873, bis[3-(triethoxysilyl)propyl] tetrasulfide]
11β-HSD1 activity (% of control) (11β-HSD1 [2]): 79±3

SMILES: C[C@]12CC[C@H](O)C[C@H]1CC[C@@H]1[C@@H]2CC[C@]2(C)[C@@H](C3=CC(=O)OC3)CC[C@]12O [Digitoxigenin]
11β-HSD2 activity (% of control) (11β-HSD2 [1]): 104±4
11β-HSD1 activity (% of control) (11β-HSD1 [2]): 36±2

SMILES: C[C@@H]1CC[C@@]2(OC1)O[C@H]1C[C@H]3[C@@H]4CC[C@H]5C[C@@H](O)CC[C@]5(C)[C@H]4CC(=O)[C@]3(C)[C@H]1[C@@H]2C [Hecogenin]
remaining activity at 20 µM (11β-HSD2 [1]; [5]): 82 ± 2%
remaining activity at 20 µM (11β-HSD1 [2]): 49 ± 9%

remaining activity at 20 µM (11β-HSD2 [1]; [5]): 140 ± 40%
IC50 (11β-HSD1 [3]): 3.8 ± 0.3 µM
SMILES: CC(C)OC(=O)C(C)(C)Oc1ccc(C(=O)c2ccc(Cl)cc2)cc1 [fenofibrate]

SMILES: CC[C@@H](C(=O)[C@@H](C)[C@@H](O)[C@H](C)CCc1ccc(C)c(O)c1C(=O)O)[C@H]1O[C@](CC)([C@H]2CC[C@](O)(CC)[C@H](C)O2)C[C@@H]1C [lasalocid]
IC50 (11β-HSD2 [4]): 14 ± 3 µM
remaining activity at 20 µM (11β-HSD1 [2]): 84 ± 3%
